In ChEMBL document CHEMBL4428075, “New antiproliferative 7-(4-(N-substituted carbamoylmethyl)piperazin-1-yl) derivatives of ciprofloxacin induce cell cycle arrest at G2/M phase” (Bioorg Med Chem, 2016):
pIC50: −log10 of the molar value.

Experiments:
OVCAR-5 = experiment: Antiproliferative activity against human OVCAR5 cells at 10^-5 M after 48 hrs by SRB assay; type: functional; details: OVCAR-5, 48 h, read-out: GI
SR = experiment: Antiproliferative activity against human SR cells at 10^-5 M after 48 hrs by SRB assay; type: functional; details: read-out: GI
KM12 = experiment: Antiproliferative activity against human KM12 cells at 10^-5 M after 48 hrs by SRB assay; type: functional; details: KM12, 48 h, read-out: GI
OVCAR-8 = experiment: Antiproliferative activity against human OVCAR8 cells at 10^-5 M after 48 hrs by SRB assay; type: functional; details: OVCAR-8, 48 h, read-out: GI
SNB-19 = experiment: Antiproliferative activity against human SNB19 cells at 10^-5 M after 48 hrs by SRB assay; type: functional; details: SNB-19, 48 h, read-out: GI
NCI-H322M = experiment: Antiproliferative activity against human NCI-H322M cells at 10^-5 M after 48 hrs by SRB assay; type: functional; details: read-out: GI
RXF 393 = experiment: Antiproliferative activity against human RXF393 cells at 10^-5 M after 48 hrs by SRB assay; type: functional; details: RXF 393, 48 h, read-out: GI
MDA-MB-231 = experiment: Antiproliferative activity against human MDA-MB-231 cells at 10^-5 M after 48 hrs by SRB assay; type: functional; details: MDA-MB-231, 48 h, read-out: GI
COLO 205 = experiment: Antiproliferative activity against human COLO205 cells at 10^-5 M after 48 hrs by SRB assay; type: functional; details: COLO 205, 48 h, read-out: GI
Malme-3M = experiment: Antiproliferative activity against human MALME-3M cells at 10^-5 M after 48 hrs by SRB assay; type: functional; details: read-out: GI
A549 [1] = experiment: Antiproliferative activity against human A549 cells at 10^-5 M after 48 hrs by SRB assay; type: functional; details: A549, 48 h, read-out: GI
WI-38 [2] = experiment: Antiproliferative activity against human WI38 cells after 24 hrs by BrdU incorporation assay; type: cell-based; details: WI-38, 24 h
HT-29 = experiment: Antiproliferative activity against human HT-29 cells at 10^-5 M after 48 hrs by SRB assay; type: functional; details: HT-29, 48 h, read-out: GI
MDA-MB-468 = experiment: Antiproliferative activity against human MDA-MB-468 cells at 10^-5 M after 48 hrs by SRB assay; type: functional; details: MDA-MB-468, 48 h, read-out: GI
SF-295 = experiment: Antiproliferative activity against human SF295 cells at 10^-5 M after 48 hrs by SRB assay; type: functional; details: SF-295, 48 h, read-out: GI
BT-549 = experiment: Antiproliferative activity against human BT549 cells at 10^-5 M after 48 hrs by SRB assay; type: functional; details: BT-549, 48 h, read-out: GI
TK-10 = experiment: Antiproliferative activity against human TK10 cells at 10^-5 M after 48 hrs by SRB assay; type: functional; details: TK-10, 48 h, read-out: GI
NCI-H522 = experiment: Antiproliferative activity against human NCI-H522 cells at 10^-5 M after 48 hrs by SRB assay; type: functional; details: NCI-H522, 48 h, read-out: GI
SK-MEL-28 = experiment: Antiproliferative activity against human SK-MEL-28 cells at 10^-5 M after 48 hrs by SRB assay; type: functional; details: SK-MEL-28, 48 h, read-out: GI
OVCAR-4 = experiment: Antiproliferative activity against human OVCAR4 cells at 10^-5 M after 48 hrs by SRB assay; type: functional; details: OVCAR-4, 48 h, read-out: GI
HCC 2998 = experiment: Antiproliferative activity against human HCC2998 cells at 10^-5 M after 48 hrs by SRB assay; type: functional; details: HCC 2998, 48 h, read-out: GI
K562 = experiment: Antiproliferative activity against human K562 cells at 10^-5 M after 48 hrs by SRB assay; type: functional; details: K562, 48 h, read-out: GI
A549 [3] = experiment: Induction of cell cycle arrest in human A549 cells assessed as accumulation at S phase at 5 uM after 24 hrs by FITC-labeled anti-BrdU antibody/7AAD staining based FACS calibur flow cytometric analysis (reference value: 20.9 %); type: functional
A549 [4] = experiment: Upregulation of p53 expression in human A549 cells after 24 hrs by Western blot analysis; type: functional, cell-based
A549 [5] = experiment: Induction of cell cycle arrest in human A549 cells assessed as accumulation at G2/M phase at 10 uM after 24 hrs by FITC-labeled anti-BrdU antibody/7AAD staining based FACS calibur flow cytometric analysis (reference value: 12.61 %); type: functional
WI-38 [6] = experiment: Downregulation of cyclinB1 expression in human WI38 cells at 5 to 25 uM after 24 hrs by Western blot analysis; type: ADME, cell-based; details: wi-38, 24 h
A549 [7] = experiment: Induction of cell cycle arrest in human A549 cells assessed as accumulation at S phase at 10 uM after 24 hrs by FITC-labeled anti-BrdU antibody/7AAD staining based FACS calibur flow cytometric analysis (reference value: 20.9 %); type: functional
A549 [8] = experiment: Induction of cell cycle arrest in human A549 cells assessed as accumulation at sub G1 phase at 25 uM after 24 hrs by FITC-labeled anti-BrdU antibody/7AAD staining based FACS calibur flow cytometric analysis (reference value: 0.82 %); type: functional
A549 [9] = experiment: Induction of cell cycle arrest in human A549 cells assessed as accumulation at G1 phase at 15 uM after 24 hrs by FITC-labeled anti-BrdU antibody/7AAD staining based FACS calibur flow cytometric analysis (reference value: 65.9 %); type: functional
A549 [10] = experiment: Upregulation of p21 expression in human A549 cells after 24 hrs by Western blot analysis; type: functional, cell-based
A549 [11] = experiment: Induction of cell cycle arrest in human A549 cells assessed as accumulation at sub G1 phase at 15 uM after 24 hrs by FITC-labeled anti-BrdU antibody/7AAD staining based FACS calibur flow cytometric analysis (reference value: 0.82 %); type: functional
A549 [12] = experiment: Induction of cell cycle arrest in human A549 cells assessed as accumulation at G2/M phase at 5 uM after 24 hrs by FITC-labeled anti-BrdU antibody/7AAD staining based FACS calibur flow cytometric analysis (reference value: 12.61 %); type: functional
A549 [13] = experiment: Induction of cell cycle arrest in human A549 cells assessed as accumulation at S phase at 25 uM after 24 hrs by FITC-labeled anti-BrdU antibody/7AAD staining based FACS calibur flow cytometric analysis (reference value: 20.9 %); type: functional
WI-38 [14] = experiment: Downregulation of cdc2 expression in human WI38 cells at 5 to 25 uM after 24 hrs by Western blot analysis; type: ADME, cell-based; details: wi-38, 24 h
A549 [15] = experiment: Induction of cell cycle arrest in human A549 cells assessed as accumulation at G2/M phase at 25 uM after 24 hrs by FITC-labeled anti-BrdU antibody/7AAD staining based FACS calibur flow cytometric analysis (reference value: 12.61 %); type: functional

SMILES: COc1cc(NC(=O)CN2CCN(c3cc4c(cc3F)c(=O)c(C(=O)O)cn4C3CC3)CC2)cc(OC)c1OC
- inhibition of growth at 10 µM (OVCAR-5): 0%
- inhibition of growth at 10 µM (SR): 0%
- inhibition of growth at 10 µM (KM12): 0%
- inhibition of growth at 10 µM (OVCAR-8): 0%
- inhibition of growth at 10 µM (SNB-19): 0%
- inhibition of growth at 10 µM (NCI-H322M): 0%
- inhibition of growth at 10 µM (RXF 393): 0%
- inhibition of growth at 10 µM (MDA-MB-231): 0%
- inhibition of growth at 10 µM (COLO 205): 0%
- inhibition of growth at 10 µM (Malme-3M): 0%
- inhibition of growth at 10 µM (A549 [1]): 0%
- pIC50 (WI-38 [2]): < 4.00
- inhibition of growth at 10 µM (HT-29): 1.21%
- inhibition of growth at 10 µM (MDA-MB-468): 0%
- inhibition of growth at 10 µM (SF-295): 0%
- inhibition of growth at 10 µM (BT-549): 7.42%
- inhibition of growth at 10 µM (TK-10): 10.5%
- inhibition of growth at 10 µM (NCI-H522): 24.4%
- inhibition of growth at 10 µM (SK-MEL-28): 0%
- inhibition of growth at 10 µM (OVCAR-4): 0%
- inhibition of growth at 10 µM (HCC 2998): 0%
- inhibition of growth at 10 µM (K562): 2.65%

SMILES: O=C(CN1CCN(c2cc3c(cc2F)c(=O)c(C(=O)O)cn3C2CC2)CC1)Nc1ccc(Cl)cc1
- inhibition of growth at 10 µM (OVCAR-5): 0%
- inhibition of growth at 10 µM (SR): 28.9%
- inhibition of growth at 10 µM (KM12): 17.1%
- inhibition of growth at 10 µM (OVCAR-8): 21.2%
- inhibition of growth at 10 µM (SNB-19): 16.9%
- Activity (A549 [3]): 16.2%
- Activity (A549 [4]): Dose-dependent effect
- inhibition of growth at 10 µM (NCI-H322M): 47.2%
- inhibition of growth at 10 µM (RXF 393): 25.3%
- Activity (A549 [5]): 22.6%
- inhibition of growth at 10 µM (MDA-MB-231): 39.8%
- Activity (WI-38 [6]): Non-Toxic
- inhibition of growth at 10 µM (COLO 205): 0.11%
- inhibition of growth at 10 µM (Malme-3M): 8.25%
- inhibition of growth at 10 µM (A549 [1]): 30.8%
- pIC50 (WI-38 [2]): < 4.00
- inhibition of growth at 10 µM (HT-29): 42.1%
- inhibition of growth at 10 µM (MDA-MB-468): 14%
- Activity (A549 [7]): 16.7%
- Activity (A549 [8]): 2.6%
- inhibition of growth at 10 µM (SF-295): 12.1%
- Activity (A549 [9]): 46%
- inhibition of growth at 10 µM (BT-549): 44.2%
- inhibition of growth at 10 µM (TK-10): 13.9%
- inhibition of growth at 10 µM (NCI-H522): 114%
- Activity (A549 [10]): Dose-dependent effect
- inhibition of growth at 10 µM (SK-MEL-28): 12.9%
- Activity (A549 [11]): 3.28%
- inhibition of growth at 10 µM (OVCAR-4): 14.7%
- Activity (A549 [12]): 13.21%
- Activity (A549 [13]): 10.5%
- Activity (WI-38 [14]): Non-Toxic
- inhibition of growth at 10 µM (HCC 2998): 14.2%
- Activity (A549 [15]): 64%
- inhibition of growth at 10 µM (K562): 31.9%

SMILES: COc1ccc(NC(=O)CN2CCN(c3cc4c(cc3F)c(=O)c(C(=O)O)cn4C3CC3)CC2)cc1
- inhibition of growth at 10 µM (OVCAR-5): 0%
- inhibition of growth at 10 µM (SR): 0%
- inhibition of growth at 10 µM (KM12): 6.61%
- inhibition of growth at 10 µM (OVCAR-8): 6%
- inhibition of growth at 10 µM (SNB-19): 12.3%
- inhibition of growth at 10 µM (NCI-H322M): 26.4%
- inhibition of growth at 10 µM (RXF 393): 11.8%
- inhibition of growth at 10 µM (MDA-MB-231): 13.8%
- inhibition of growth at 10 µM (COLO 205): 2.63%
- inhibition of growth at 10 µM (Malme-3M): 5.64%
- inhibition of growth at 10 µM (A549 [1]): 7.18%
- pIC50 (WI-38 [2]): < 4.00
- inhibition of growth at 10 µM (HT-29): 0.04%
- inhibition of growth at 10 µM (MDA-MB-468): 6.39%
- inhibition of growth at 10 µM (SF-295): 2.32%
- inhibition of growth at 10 µM (BT-549): 5.78%
- inhibition of growth at 10 µM (NCI-H522): 12.9%
- inhibition of growth at 10 µM (SK-MEL-28): 2.72%
- inhibition of growth at 10 µM (OVCAR-4): 0%
- inhibition of growth at 10 µM (HCC 2998): 0%
- inhibition of growth at 10 µM (K562): 5.67%
